Reference: ChEMBL document CHEMBL1777693, “New halogenated phenylcoumarins as tyrosinase inhibitors” (Bioorg Med Chem Lett, 2011)

Target: T1, Tyrosinase (Agaricus bisporus, UniProt O42713)
T1 sequence (O42713 whole entry): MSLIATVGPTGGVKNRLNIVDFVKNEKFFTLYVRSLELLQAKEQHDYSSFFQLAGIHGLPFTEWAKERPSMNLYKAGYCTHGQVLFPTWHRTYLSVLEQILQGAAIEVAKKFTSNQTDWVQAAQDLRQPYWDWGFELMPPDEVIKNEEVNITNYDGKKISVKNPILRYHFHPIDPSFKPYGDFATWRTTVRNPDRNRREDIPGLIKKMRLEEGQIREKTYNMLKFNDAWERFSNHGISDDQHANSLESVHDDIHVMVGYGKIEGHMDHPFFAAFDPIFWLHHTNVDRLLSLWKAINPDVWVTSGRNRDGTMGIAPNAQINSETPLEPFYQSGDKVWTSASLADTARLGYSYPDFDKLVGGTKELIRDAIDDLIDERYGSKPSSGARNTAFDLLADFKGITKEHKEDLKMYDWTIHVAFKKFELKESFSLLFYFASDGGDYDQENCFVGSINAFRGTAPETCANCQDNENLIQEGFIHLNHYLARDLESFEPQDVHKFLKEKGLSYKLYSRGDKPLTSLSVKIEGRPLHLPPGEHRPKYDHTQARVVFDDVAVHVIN
Test: Inhibition of mushroom tyrosinase using L-3,4- dihydroxyphenylalanine as substrate measured for 5 mins by spectrophotometric analysis

| IC50 | SMILES |
| --- | --- |
| 1300 µM | O=c1oc2c(O)cccc2cc1-c1ccc(O)cc1 |
| 215 µM | O=c1oc2c(O)cc(Br)cc2cc1-c1ccc(O)cc1 |

The remaining lines, values behind:

| SMILES | IC50 |
| --- | --- |
| COc1cc(Br)cc2cc(-c3ccccc3)c(=O)oc12 | > 5000 µM |
| CCOc1cccc2cc(-c3ccccc3)c(=O)oc12 | 2070 µM |
| CCOc1cccc2cc(-c3ccc(OC)cc3)c(=O)oc12 | > 5000 µM |
| COc1ccc(-c2cc3cc(Br)cc(OC)c3oc2=O)cc1 | 1360 µM |
| O=c1oc2c(O)cccc2cc1-c1ccccc1 | > 5000 µM |
| O=c1oc2c(O)cc(Br)cc2cc1-c1ccccc1 | 302 µM |

Target: T1, Tyrosinase
Test: Non-competitive inhibition of mushroom tyrosinase using L-3,4- dihydroxyphenylalanine as substrate by Lineweaver-Burk double reciprocal plot analysis

| Ki | SMILES |
| --- | --- |
| 189 µM | O=c1oc2c(O)cc(Br)cc2cc1-c1ccc(O)cc1 |

Target: T2, Tyrosinase (Homo sapiens, UniProt P14679)
T2 sequence (P14679 whole entry): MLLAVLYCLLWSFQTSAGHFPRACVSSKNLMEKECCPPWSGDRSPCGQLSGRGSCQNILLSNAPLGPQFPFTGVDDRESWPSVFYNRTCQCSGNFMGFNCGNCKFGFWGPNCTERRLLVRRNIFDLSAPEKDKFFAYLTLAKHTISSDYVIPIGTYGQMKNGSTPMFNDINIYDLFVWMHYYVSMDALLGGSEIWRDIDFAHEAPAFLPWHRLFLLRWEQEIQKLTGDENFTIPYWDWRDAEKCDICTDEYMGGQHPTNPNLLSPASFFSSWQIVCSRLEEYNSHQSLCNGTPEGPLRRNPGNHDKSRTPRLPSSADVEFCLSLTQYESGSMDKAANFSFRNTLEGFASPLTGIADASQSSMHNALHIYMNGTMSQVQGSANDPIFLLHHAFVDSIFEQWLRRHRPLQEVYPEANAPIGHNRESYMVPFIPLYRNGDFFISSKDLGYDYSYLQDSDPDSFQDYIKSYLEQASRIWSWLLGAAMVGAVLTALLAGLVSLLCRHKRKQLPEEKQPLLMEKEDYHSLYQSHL
Test: Inhibition of tyrosinase

| IC50 | SMILES |
| --- | --- |
| > 10000 µM | O=c1oc2cc(O)ccc2cc1-c1ccccc1 |
| > 10000 µM | O=c1oc2cc(O)ccc2cc1-c1cc(O)cc(O)c1 |
| 3680 µM | Oc1ccc(/C=C/c2cc(O)cc(O)c2)cc1 [RESVERATROL] |
| 420 µM | O=c1ccc2ccc(O)cc2o1 [UMBELLIFERONE] |
